The values below come from US12636249B2, “Concentrated injectable tranexamic acid compositions and methods of use thereof” (Galen Limited, priority 2022, dated 2026).

For series [1] the following is noted: bleeding trauma patients, cited from earlier work.
In series [2] the test system is fibrinolysis. To be noted: in vitro and in vivo pharmacodynamics studies (Picetti et al., 2019); cited from earlier work.
The nature of series [3]: Pharmacokinetics of TXA in swine plasma after IV and IM administration. The series is classed as in vivo, domestic pigs. To be noted: for Cmax: read-out: Cmax range; for duration of effective plasma concentration (FIG. 13): effective level about 10 to about 15 ug/ml; for time effective TXA levels are maintained (FIG. 13 legend): target about 15 ug/mL. The procedure:
Studies of pharmacokinetics (PK) and pharmacodynamics (PD) of TXA were performed in swine conducted in compliance with Good Laboratory Practice (GLP) standards. All facilities and activities were accredited in accordance with GLP and ISO9001 (2015).
Eighteen domestic pigs were assigned to four test groups. Group 1: Control, IM administered with vehicle (0.9% NaCl, pH 3-4, w/v), two animals were administered 2 mL vehicle, one animal administered 4 mL vehicle.
IM injections were performed using an auto-injector. […] PK analysis was noncompartmental. Following sacrifice, animals were subjected to a full detailed necropsy and histopathological evaluation performed on injection sites and major organs.
Additional blood samples were collected for Complete Blood Count (CBC), biochemistry profile and prothrombin time/partial thromboplastin time (PT/PTT) at baseline, 1, 3, and 72 hr post dosing. For thromboelastographic (TEG) analysis blood was collected at base line, 1, 3 and 6 hr post dosing. The study was conducted over 5 separate dosing sessions. For each session the animals were acclimatized for at least 4 days prior to Central Venous Catheter (CVCs) placement procedure. All animals were sacrificed 72 hours post treatment and were subjected to a full gross necropsy. Organ samples and injection sites were collected for histopathological analysis.
Pharmacokinetic and bioanalytical analysis of Tranexamic acid, based on plasma samples, was performed. On the date of analysis, plasma samples were thawed at room temperature, along with calibration and QC samples. 50 μL of plasma were taken for analysis. Tranexamic acid and its internal standard were separated from pig plasma by protein precipitation. The samples were analyzed by a validated high-performance liquid chromatography-mass spectrometry/mass spectrometry (HPLC-MS/MS) method, using Hilic Silica 3 μm column with an electro-spray interface, in a positive ion mode.

For series [4] the following is noted: cited from earlier work.
The conditions of series [5]: adult patients with traumatic cardiac arrest, prehospital administration; cited from earlier work.

Molecules are shown by their SMILES. Read-outs that look alike come from different tables or passages of the source.

On to `NC[C@H]1CC[C@H](C(=O)O)CC1` [TXA, trans-4-(aminomethyl) cyclohexanecarboxylic acid], for which the “bioavailability of IM TXA” value in series [1] (1 gram IM as two 5 ml (0.5 g each) injections) was 77%. Also, the “tolerability of IM injections” value in series [1] (1 gram IM as two 5 ml injections) is recorded as “well-tolerated”. In addition, the “time to therapeutic plasma concentrations” value in series [1] (after IM injection of 1 gram) was at most 15 min. Moreover, the “TXA concentration in blood or plasma giving substantial inhibition of fibrinolysis” value in series [2] was 10 to 15 µg/mL. Also, the AUC(0-inf) in series [3] (pig, plasma, im, 1 g, swine Group 3: 1 g TXA IM, n=5, read-out: AUCINF_pred range) was 81500 to 90300 ng·h/mL; in series [3] (pig, plasma, im, 1 g, swine Group 3: 1 g TXA IM, n=5, read-out: mean AUCINF_pred (converted)), 84800 ng·h/mL; in series [3] (pig, plasma, im, 2 g, swine Group 4: 2 g TXA IM, n=5, read-out: AUCINF_pred range), 134000 to 148000 ng·h/mL; in series [3] (pig, plasma, im, 2 g, swine Group 4: 2 g TXA IM, n=5, read-out: mean AUCINF_pred (converted)), 141000 ng·h/mL; in series [3] (pig, plasma, iv, 1 g, swine Group 2: 1 g TXA IV, n=5, read-out: mean AUCINF_pred (converted)), 74000 ng·h/mL. Besides, the Tmax in series [3] (pig, plasma, im, 1 g, swine Group 3: 1 g TXA IM, n=5, read-out: Tmax range) was 15 to 120 min; in series [3] (pig, plasma, im, 1 g, swine Group 3: 1 g TXA IM, read-out: mean Tmax (converted)) it was 44 min; in series [3] (pig, plasma, im, 2 g, swine Group 4: 2 g TXA IM, n=5, read-out: Tmax range) it was 30 to 60 min; in series [3] (pig, plasma, im, 2 g, swine Group 4: 2 g TXA IM, read-out: mean Tmax (converted)) it was 41.8 min; in series [3] (pig, plasma, iv, 1 g, swine Group 2: 1 g TXA IV, n=5, read-out: Tmax range), 11 to 12 min; in series [3] (pig, plasma, iv, 1 g, swine Group 2: 1 g TXA IV, read-out: mean Tmax (converted)) it was 11.2 min. Also, the maximum concentration (Cmax) was 20100 to 34800 ng/mL in series [3] (pig, plasma, im, 1 g); 35700 to 47000 ng/mL in series [3] (pig, plasma, im, 2 g); 40900 to 78500 ng/mL in series [3] (pig, plasma, iv, 1 g). In series [3] (pig, plasma, intramuscular, 1 g), this compound registered a bioavailability of over 100%. For the same compound, the “mean peak plasma concentration (mean concentration-time curve, FIG. 9)” value in series [3] (swine Group 2, n=5: 1 g TXA IV, 10 mL of 100 mg/mL TRANEX injection pH 6.5-8 over 10 min) was determined as 64 µg/mL; in series [3] (swine Group 3, n=5: 1 g TXA IM, 2 mL of 500 mg/mL formulation A pH 3-4) it was 24.2 µg/mL; in series [3] (swine Group 4, n=5: 2 g TXA IM, 4 mL of 500 mg/mL formulation A pH 3-4), 41 µg/mL. The “time of mean peak plasma concentration” value in series [3] (swine Group 2: 1 g TXA IV, time from end of 10 min IV injection) is reported as 1 min; in series [3] (swine Group 3: 1 g TXA IM, post dosing) it was at most 20 min; in series [3] (swine Group 4: 2 g TXA IM, post dosing) it was at most 45 min. In addition, the “duration of effective plasma concentration (FIG. 13)” value was “about 130 minutes” in series [3] (swine, 1 g IM TXA); “about 80 minutes” in series [3] (swine, 1 g IV TXA); “about 200 minutes” in series [3] (swine, 2 g IM TXA). Besides, in series [3] (swine, 1 g versus 2 g IM), the dose proportionality entry is “exhibits dose proportionality”. Further, the “time effective TXA levels are maintained (FIG. 13 legend)” value in series [3] (swine, IM administration) is listed as over 130 min; in series [3] (swine, IV administration) it was under 105 min.
As for `OCc1ccccc1` [benzyl alcohol], the cutaneous anesthesia result in series [4] (intradermal 1 ml 0.9% benzyl alcohol with epinephrine) is recorded as “prolonged cutaneous anesthesia”. For the same compound, the pain on injection entry in series [4] (versus lidocaine with epinephrine) was “significantly less painful on injection”.
Take `CNC[C@H](O)c1ccc(O)c(O)c1` [epinephrine]: in series [5], the short-term survival result is reported as “increased short-term survival”.

As usually defined, the Tmax is the time at which the peak concentration occurs. The Cmax is the peak of the concentration-time curve. A word on the bioavailability: it is dose-corrected exposure relative to a reference, in per cent. A low value points to poor availability.
